This is an account of results in patent US20150152122A1, “TYROSINASE INHIBITORS” (Avon Products, Inc., priority 2013, published 2015).

The test system of one test is B16 mouse melanoma cells. The test can be described thus: Inhibition of melanin production in B16 melanoma cell assay. In kind it is cell-based. The following applies: 4 days, normalized to cell viability (MTT), alpha MSH 2 ng/ml. How it is done:
The effects of various test compounds on melanin levels were determined by performing assays using B16 melanoma cells. These cells are known to constitutively produce melanin and are a commonly utilized and accepted model system for monitoring the inhibition of melanin synthesis. The B16 mouse melanoma cells were seeded (ATCC, cat. #: CRL-6475) into 96-well tissue culture-treated plates (BD Falcon) and treated with test actives or controls in phenol red free DMEM (Mediatech; cat. #: 17-205-CV) with 2 nanogram/ml of alpha MSH (Fluka; cat #: 63605). The cells were examined for their ability to modulate pigment formation. […] Tests were performed in 6 replicates each. Following the treatment period (4 days), the level of pigment produced or melanin synthesized was quantified by reading the absorbance at 540 nm using a standard microplate reader (Tecan Group Ltd.).
After quantifying the amount of melanin, cell viability was determined using the MTT conversion method. The MTT conversion method measures the reduction of the MTT dye from a yellow colored, water-soluble, tetrazolium salt to a bluish-purple colored insoluble formazan precipitate by NAD(P)H-dependent microsomal dehydrogenase enzymes, which only function in viable cells. The intensity of the blue color is indicative of cell viability. After quantifying the amount of melanin pigment produced, the cells were exposed to MTT dye solution (1 mg/ml) for two to three hours. Formazan material was solubilized with reagent alcohol (95% ethanol: 5% isopropanol) and shaken on an orbital shaker for 15-30 minutes. MTT dye uptake and conversion by viable cells were determined by measuring the extracted formazan at 570 nm using a microplate reader. Total pigmentation was calculated, normalized to cell viability values and expressed as the average percent change in melanin activity relative to control of the six experiments performed.

In the next test the test system is Mushroom tyrosinase. Put plainly: Mushroom tyrosinase assay. In kind it is biochemical. The settings on record: percent change vs DMSO vehicle, L-Tyrosine substrate, 25° C., 30 min. How it is done:
Mushroom tyrosinase and L-Tyrosine were obtained from Sigma-Aldrich, Inc. (St. Louis, Mo.). The enzyme activity was measured in buffer containing 100 mM phosphate buffer pH 6.8, 5% absolute ethanol, 2 micrograms/milliiliter mushroom tyrosinase, and 0.2 mg/ml L-Tyrosine. The reaction (conversion of L-Tyrosine to DOPAchrome) was conducted in triplicates at 25° C. for 30 min, and absorbance was then measured at 492 nm. Kojic Acid was used as a positive control inhibitor in these assays. Percent change in tyrosinase activity relative to vehicle control was calculated.

Test [1] concerns MELANODERM (MEL-300-B) human skin model. The test can be described thus: 3D skin equivalent tissue pigmentation assay (MELANODERM). The following applies: topical 10 μl, Day 11. The class given is cell-based. How it is done: The effect of the tyrosinase inhibitors on melanin levels was investigated using a MELANODERM™ (MEL-300-B, MatTek Corp., Ashland, Mass.) human skin model. MELANODERM™ is a viable reconstituted three-dimensional human skin equivalent containing melanocytes derived from African-American donors. Tissues were maintained in culture medium EPI-100-NMM-113 at 37° C. as recommended by the manufacturer.
The compounds were dissolved in either 69% propylene glycol+30% EtOH+1% DMSO or 70% propylene glycol+30% EtOH desired concentration (w/v). 10 μl of the solution was applied topically to the MELANODERMTM tissue while culture medium was added on days 1, 2, 4, 7, and 9. Control tissues were treated with the 10 μl of corresponding vehicle only. On Day 11, tissues were collected and homogenized in a buffer containing 1% SDS, 50 mM EDTA, and 10 mM Tris, pH 6.8. To each homogenate, protease K (5 mg/ml) was added and incubated overnight at 45° C. Additional protease K was added and incubated for 4 hours at 45° C., followed by the addition of 0.5M sodium carbonate and 30% H2O2 and incubation at 80° C. for 30 minutes. The samples were cooled down to room temperature, and extracted with chloroform/methanol (2:1). After centrifugation at 10,000 g for 10 minutes, absorbance of the top phase was measured at 450 nm. Percent change in melanin levels in treated tissue was calculated relative to control. The average percent change in melanin relative to control of the three tissues is reported in the Table 5 in accordance with the scale: 0: <7% decrease in pigmentation level; +: between 8-14% decrease; ++: between 15-20% decrease; +++: between 21-30% decrease; ++++: >31% decrease; C=cytotoxic

In another test the test system is human skin explants. Put plainly: Melanin production in human skin explants. The following applies: human skin explant. The class given is cell-based. How it is done:
The effects of test compound AV7909 on melanin levels in human skin explants were determined relative to a DMSO control and Kojic Acid benchmark.

Test [2] relates to Human Epidermal Melanocytes, neonatal, darkly pigmented donor (HEMn-DP). The test can be described thus: Human Primary Melanocyte Pigmentation Assay (HEMn-DP). The class given is cell-based. The following applies: 5 days, normalized to cell viability. How it is done: The effects of various test compounds on melanin productions were determined by performing assays using Human Epidermal Melanocytes, neonatal, darkly pigmented donor (HEMn-DP). The HEMn-DP cells were seeded (Invitrogen; cat. #: C-202-5C) into 6-well tissue culture-treated plates (BD Falcon) and treated with test actives or controls in Medium 254 (Invitrogen; cat. #: M-254-500) supplemented with 1% HMSG (Invitrogen; cat. #: S-002-5) and 1% PS. The cells were examined for their ability to modulate pigment formation. […] Tests were performed in triplicates each. Following the treatment period (5 days), supernatants were aspirated. The melanin was extracted with 0.5 ml of 2N NaOH for 30 minutes at 80° C. The level of melanin synthesized within the cells was quantified by reading the absorbance at 405 nm using a standard microplate reader (Tecan Group Ltd.).
The cell viability was determined using the MTT conversion method. The MTT conversion method measures the reduction of the MTT dye from a yellow colored, water-soluble, tetrazolium salt to a bluish-purple colored insoluble formazan precipitate by NAD(P)H-dependent microsomal dehydrogenase enzymes, which only function in viable cells. […] MTT dye uptake and conversion by viable cells were determined by measuring the extracted formazan at 570 nm using a microplate reader. Total pigmentation was calculated and normalized to cell viability values. […]

Take `S=c1[nH]nc(-c2ccc3c(c2)OCO3)o1` [AV5828]: the “B16 Assay Percent Change Melanin Compared to Vehicle” value in the test on B16 mouse melanoma cells (concentration 0.0001%) is on record as −13%; with B16 mouse melanoma cells (concentration 0.0010%), −30%. In addition, the “Tyrosinase Activity relative to Vehicle Control” value was −48% with Mushroom tyrosinase (concentration 0.0010%) and −77% with Mushroom tyrosinase (concentration 0.0100%).

As for `Sc1nnc2sc3ccccc3n12` [AV0442], the “B16 Assay Percent Change Melanin Compared to Vehicle” value in the test on B16 mouse melanoma cells (concentration 0.0010%) is −19%. The entries for the “Tyrosinase Activity relative to Vehicle Control” value with Mushroom tyrosinase (concentration 0.0010%) and in the test with Mushroom tyrosinase (concentration 0.0100%) were −73% and −49%, respectively.

Take `Cc1cc(C)n(-c2ccc(=S)[nH]n2)n1` [AV7909]: the “B16 Assay Percent Change Melanin Compared to Vehicle” value is given as −17% in the test with B16 mouse melanoma cells (concentration 0.0001%) and −79% in the test on B16 mouse melanoma cells (concentration 0.0010%). For the same compound, the “3D Tissue Pigmentation Assay (change in melanin compared to vehicle control)” value in test [1] (concentration 0.1% (w/v)) is given as “++ (between 15-20% decrease)”; in test [1] (concentration 0.25% (w/v)), “+++ (between 21-30% decrease)”; in test [1] (concentration 0.5% (w/v)), “++++ (>31% decrease)”. For the same compound, the “Tyrosinase Activity relative to Vehicle Control” value with Mushroom tyrosinase (concentration 0.0010%) is −82%; in the test with Mushroom tyrosinase (concentration 0.0100%) it was −70%. The “Pigment Production (percent change in melanin compared to DMSO vehicle control)” value is recorded as −17% with human skin explants (concentration 0.1%) and −28% with human skin explants (concentration 0.5%).

For the compound `Cn1c2ccccc2n2c(=S)[nH]nc12` [AV7533], the “HUMAN PRIMARY MELANOCYTE PIGMENTATION ASSAY (change in melanin compared to DMSO vehicle control)” value is on record as 0 (<10% decrease in pigmentation level) in test [2] (concentration 0.0001%) and “++ (between 31-50% decrease)” in test [2] (concentration 0.001%). For the same compound, the “B16 Assay Percent Change Melanin Compared to Vehicle” value in the test with B16 mouse melanoma cells (concentration 0.0001%) was −31%; in the test with B16 mouse melanoma cells (concentration 0.0010%), −63%. The “3D Tissue Pigmentation Assay (change in melanin compared to vehicle control)” value in test [1] (concentration 0.05% (w/v)) is reported as “+ (between 8-14% decrease)”; in test [1] (concentration 0.1% (w/v)) it was “+ (between 8-14% decrease)”; in test [1] (concentration 0.25% (w/v)), “++ (between 15-20% decrease)”. Besides, the “Tyrosinase Activity relative to Vehicle Control” value is recorded as −74% with Mushroom tyrosinase (concentration 0.0010%) and −70% with Mushroom tyrosinase (concentration 0.0100%).

For `CC(C)c1nc(=S)[nH]n1-c1ccccc1` [AV1973], the “B16 Assay Percent Change Melanin Compared to Vehicle” value with B16 mouse melanoma cells (concentration 0.0001%) is reported as −17%; in the test on B16 mouse melanoma cells (concentration 0.0010%), −60%. Besides, the “Tyrosinase Activity relative to Vehicle Control” value in the test on Mushroom tyrosinase (concentration 0.0100%) is recorded as −81%.

With `O=c1cc(CO)occ1O` [Kojic Acid, Kojic acid (5-hydroxy-4-pyran-4-one-2-methyl), reference compound], in the test with human skin explants (concentration 0.1%), the “Pigment Production (percent change in melanin compared to DMSO vehicle control)” value is listed as −23%.

For `S=c1nc(-c2cccs2)cn[nH]1` [AV4926], the “B16 Assay Percent Change Melanin Compared to Vehicle” value with B16 mouse melanoma cells (concentration 0.0010%) is on record as −49%. Further, the “Tyrosinase Activity relative to Vehicle Control” value in the test on Mushroom tyrosinase (concentration 0.0010%) was −75%; in the test with Mushroom tyrosinase (concentration 0.0100%) it was −53%.
